Experimental data taken from the kinase profiling compilation of Christmann-Franck et al. (2016).

How the values were obtained:
Experiment in all cases: radiometric filter-binding kinase assay, Kinase HotSpot
Conditions in all cases: compound 0.5 µM; ATP 10 µM
ABL1 (human) = ABL1 (human) (UniProt P00519)
ACVR1B (human) = ACVR1B (human) (UniProt P36896)
AURKA (human) = AURKA (human) (UniProt O14965)
AURKC (human) = AURKC (human) (UniProt Q9UQB9)
AXL (human) = AXL (human) (UniProt P30530)
CAMK2B (human) = CAMK2B (human) (UniProt Q13554)
CAMK2D (human) = CAMK2D (human) (UniProt Q13557)
CAMKK2 (human) = CAMKK2 (human) (UniProt Q96RR4)
CDK2 CCNE1 (human) = CDK2 CCNE1 (human) (UniProt P24941+P24864)
CHEK1 (human) = CHEK1 (human) (UniProt O14757)
CLK1 (human) = CLK1 (human) (UniProt P49759)
CSNK2A1 (human) = CSNK2A1 (human) (UniProt P68400)
DAPK2 (human) = DAPK2 (human) (UniProt Q9UIK4)
DYRK1A (human) = DYRK1A (human) (UniProt Q13627)
EGFR (human) = EGFR (human) (UniProt P00533)
EPHA4 (human) = EPHA4 (human) (UniProt P54764)
Sequence of EPHA4 (human) (P54764 whole entry, looked up): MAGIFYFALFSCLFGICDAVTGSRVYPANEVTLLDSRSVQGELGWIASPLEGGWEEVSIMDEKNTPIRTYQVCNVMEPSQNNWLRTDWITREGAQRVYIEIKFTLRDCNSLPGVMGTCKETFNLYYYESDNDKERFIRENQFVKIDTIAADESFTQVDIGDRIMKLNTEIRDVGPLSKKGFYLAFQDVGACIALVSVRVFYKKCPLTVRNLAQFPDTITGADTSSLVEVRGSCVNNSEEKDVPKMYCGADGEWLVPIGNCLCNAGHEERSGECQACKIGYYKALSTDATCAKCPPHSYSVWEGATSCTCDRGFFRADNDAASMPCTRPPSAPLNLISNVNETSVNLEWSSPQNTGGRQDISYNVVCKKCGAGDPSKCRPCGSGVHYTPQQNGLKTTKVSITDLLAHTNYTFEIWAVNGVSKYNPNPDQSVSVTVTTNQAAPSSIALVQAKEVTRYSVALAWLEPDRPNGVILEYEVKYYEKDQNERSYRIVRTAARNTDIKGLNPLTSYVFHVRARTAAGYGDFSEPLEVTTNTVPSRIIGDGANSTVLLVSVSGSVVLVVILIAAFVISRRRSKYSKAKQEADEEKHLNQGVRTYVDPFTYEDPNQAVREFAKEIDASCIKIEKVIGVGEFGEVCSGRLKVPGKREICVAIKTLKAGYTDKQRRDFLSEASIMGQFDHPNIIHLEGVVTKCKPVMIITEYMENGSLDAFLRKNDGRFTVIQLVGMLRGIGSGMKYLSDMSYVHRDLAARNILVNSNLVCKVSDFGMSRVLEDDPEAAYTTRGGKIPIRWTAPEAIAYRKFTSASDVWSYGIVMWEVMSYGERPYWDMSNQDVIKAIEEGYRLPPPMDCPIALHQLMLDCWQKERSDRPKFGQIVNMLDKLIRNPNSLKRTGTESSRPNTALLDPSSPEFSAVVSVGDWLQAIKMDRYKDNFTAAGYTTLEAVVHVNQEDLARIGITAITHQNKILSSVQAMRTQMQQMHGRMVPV

EPHA5 (human) = EPHA5 (human) (UniProt P54756)
Sequence of EPHA5 (human) (P54756 whole entry, looked up): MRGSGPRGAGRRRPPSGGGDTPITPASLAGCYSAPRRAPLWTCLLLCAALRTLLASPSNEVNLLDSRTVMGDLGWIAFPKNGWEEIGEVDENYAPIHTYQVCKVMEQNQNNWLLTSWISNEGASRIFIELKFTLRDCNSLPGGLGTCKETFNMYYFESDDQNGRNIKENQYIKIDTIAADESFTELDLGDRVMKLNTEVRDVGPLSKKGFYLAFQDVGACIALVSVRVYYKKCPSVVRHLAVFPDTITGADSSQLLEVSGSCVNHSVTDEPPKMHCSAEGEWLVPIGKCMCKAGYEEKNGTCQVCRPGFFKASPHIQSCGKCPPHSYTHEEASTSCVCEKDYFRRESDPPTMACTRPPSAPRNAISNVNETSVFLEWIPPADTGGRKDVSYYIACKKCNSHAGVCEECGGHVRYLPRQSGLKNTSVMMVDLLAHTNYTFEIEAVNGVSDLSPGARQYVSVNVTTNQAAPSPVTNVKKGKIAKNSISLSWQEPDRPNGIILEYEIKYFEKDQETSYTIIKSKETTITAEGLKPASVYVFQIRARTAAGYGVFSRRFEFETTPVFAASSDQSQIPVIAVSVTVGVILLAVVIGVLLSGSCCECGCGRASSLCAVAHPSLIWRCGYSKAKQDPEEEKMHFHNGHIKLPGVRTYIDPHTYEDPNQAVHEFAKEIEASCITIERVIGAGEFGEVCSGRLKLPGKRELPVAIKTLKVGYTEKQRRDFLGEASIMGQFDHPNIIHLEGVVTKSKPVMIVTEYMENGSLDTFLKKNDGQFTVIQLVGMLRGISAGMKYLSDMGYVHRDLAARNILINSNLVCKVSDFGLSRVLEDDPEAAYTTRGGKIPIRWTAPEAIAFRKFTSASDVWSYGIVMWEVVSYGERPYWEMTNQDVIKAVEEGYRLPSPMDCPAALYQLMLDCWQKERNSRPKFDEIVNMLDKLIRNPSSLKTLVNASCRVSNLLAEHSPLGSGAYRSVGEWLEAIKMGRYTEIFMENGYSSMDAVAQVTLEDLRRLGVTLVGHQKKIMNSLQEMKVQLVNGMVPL

EPHB4 (human) = EPHB4 (human) (UniProt P54760)
ERBB2 (human) = ERBB2 (human) (UniProt P04626)
FGFR2 (human) = FGFR2 (human) (UniProt P21802)
Sequence of FGFR2 (human) (P21802 whole entry, looked up): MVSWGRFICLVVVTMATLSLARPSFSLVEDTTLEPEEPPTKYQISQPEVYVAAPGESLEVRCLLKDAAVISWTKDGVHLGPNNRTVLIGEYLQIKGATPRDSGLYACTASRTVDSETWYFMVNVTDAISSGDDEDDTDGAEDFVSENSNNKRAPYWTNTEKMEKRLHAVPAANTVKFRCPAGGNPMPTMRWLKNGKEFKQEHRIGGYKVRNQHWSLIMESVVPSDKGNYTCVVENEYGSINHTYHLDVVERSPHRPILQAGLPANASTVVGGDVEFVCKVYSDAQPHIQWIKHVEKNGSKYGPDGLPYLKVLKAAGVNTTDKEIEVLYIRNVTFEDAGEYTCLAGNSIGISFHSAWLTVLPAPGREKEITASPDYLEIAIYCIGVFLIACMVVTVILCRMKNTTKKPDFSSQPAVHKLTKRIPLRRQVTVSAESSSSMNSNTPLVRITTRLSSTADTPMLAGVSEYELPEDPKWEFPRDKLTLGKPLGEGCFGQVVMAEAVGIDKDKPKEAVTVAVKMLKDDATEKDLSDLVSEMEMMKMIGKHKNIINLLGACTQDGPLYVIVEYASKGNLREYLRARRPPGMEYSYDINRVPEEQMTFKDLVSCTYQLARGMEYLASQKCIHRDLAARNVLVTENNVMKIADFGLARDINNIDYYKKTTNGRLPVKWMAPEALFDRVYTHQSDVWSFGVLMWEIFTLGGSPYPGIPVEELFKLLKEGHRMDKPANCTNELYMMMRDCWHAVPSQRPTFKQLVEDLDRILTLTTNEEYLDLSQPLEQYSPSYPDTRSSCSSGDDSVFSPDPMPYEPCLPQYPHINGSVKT

FRK (human) = FRK (human) (UniProt P42685)
[1] = target: JAK1 JH1 catalytic (human) (UniProt P23458)
JAK2 JH1 JH2 (human) = JAK2 JH1 JH2 (human) (UniProt O60674)
KIT (human) = KIT (human) (UniProt P10721)
Sequence of KIT (human) (P10721 whole entry, looked up): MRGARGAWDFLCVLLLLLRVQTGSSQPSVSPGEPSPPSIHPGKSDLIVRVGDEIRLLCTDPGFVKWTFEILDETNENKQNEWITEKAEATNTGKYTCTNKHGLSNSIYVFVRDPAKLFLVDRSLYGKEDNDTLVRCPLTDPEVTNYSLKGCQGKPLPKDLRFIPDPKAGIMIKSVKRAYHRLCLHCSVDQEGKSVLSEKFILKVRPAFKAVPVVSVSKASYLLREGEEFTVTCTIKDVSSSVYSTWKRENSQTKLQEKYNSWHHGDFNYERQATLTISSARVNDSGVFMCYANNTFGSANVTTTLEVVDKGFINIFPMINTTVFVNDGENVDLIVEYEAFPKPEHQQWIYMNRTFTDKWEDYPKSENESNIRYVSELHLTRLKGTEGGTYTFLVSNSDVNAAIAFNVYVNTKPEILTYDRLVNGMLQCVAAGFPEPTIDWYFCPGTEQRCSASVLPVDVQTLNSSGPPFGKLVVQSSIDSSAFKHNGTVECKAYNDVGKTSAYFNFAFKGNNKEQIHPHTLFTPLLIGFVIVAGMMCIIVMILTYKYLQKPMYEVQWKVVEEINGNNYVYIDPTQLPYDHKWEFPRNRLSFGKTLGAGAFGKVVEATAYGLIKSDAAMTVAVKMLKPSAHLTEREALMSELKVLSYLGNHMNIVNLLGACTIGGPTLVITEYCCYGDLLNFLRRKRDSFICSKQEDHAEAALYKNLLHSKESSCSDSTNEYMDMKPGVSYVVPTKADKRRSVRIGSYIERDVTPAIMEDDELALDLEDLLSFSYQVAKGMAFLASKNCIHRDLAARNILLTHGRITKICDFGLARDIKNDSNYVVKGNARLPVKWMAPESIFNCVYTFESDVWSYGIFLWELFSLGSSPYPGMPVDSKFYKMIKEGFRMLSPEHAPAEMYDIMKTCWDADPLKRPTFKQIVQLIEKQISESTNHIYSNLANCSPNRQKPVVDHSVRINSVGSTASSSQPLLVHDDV

LCK (human) = LCK (human) (UniProt P06239)
Sequence of LCK (human) (P06239 whole entry, looked up): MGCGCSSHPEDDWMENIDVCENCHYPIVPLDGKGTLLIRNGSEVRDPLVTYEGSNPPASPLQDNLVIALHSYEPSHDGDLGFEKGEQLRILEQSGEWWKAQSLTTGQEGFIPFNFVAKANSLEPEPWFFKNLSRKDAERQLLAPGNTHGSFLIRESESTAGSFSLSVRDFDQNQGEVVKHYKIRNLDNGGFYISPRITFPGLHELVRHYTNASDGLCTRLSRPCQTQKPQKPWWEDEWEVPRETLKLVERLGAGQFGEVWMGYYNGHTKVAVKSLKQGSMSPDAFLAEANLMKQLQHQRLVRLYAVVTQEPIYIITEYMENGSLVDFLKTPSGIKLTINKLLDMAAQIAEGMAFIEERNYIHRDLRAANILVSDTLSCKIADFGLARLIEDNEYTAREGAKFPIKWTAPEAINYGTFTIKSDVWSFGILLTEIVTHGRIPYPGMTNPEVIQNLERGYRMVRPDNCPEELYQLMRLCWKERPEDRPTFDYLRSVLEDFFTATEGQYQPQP

LIMK1 (human) = LIMK1 (human) (UniProt P53667)
MAP3K14 (human) = MAP3K14 (human) (UniProt Q99558)
MAP4K2 (human) = MAP4K2 (human) (UniProt Q12851)
MAPK14 (human) = MAPK14 (human) (UniProt Q16539)
MAPKAPK2 (human) = MAPKAPK2 (human) (UniProt P49137)
MKNK2 (human) = MKNK2 (human) (UniProt Q9HBH9)
NEK2 (human) = NEK2 (human) (UniProt P51955)
OXSR1 (human) = OXSR1 (human) (UniProt O95747)
PAK2 (human) = PAK2 (human) (UniProt Q13177)
PASK (human) = PASK (human) (UniProt Q96RG2)
PDGFRB (human) = PDGFRB (human) (UniProt P09619)
PLK1 (human) = PLK1 (human) (UniProt P53350)
RET (human) = RET (human) (UniProt P07949)
ROCK1 (human) = ROCK1 (human) (UniProt Q13464)
SRPK1 (human) = SRPK1 (human) (UniProt Q96SB4)
TTK (human) = TTK (human) (UniProt P33981)
TXK (human) = TXK (human) (UniProt P42681)

Sequence of ACVR1B (human) (P36896 whole entry, looked up): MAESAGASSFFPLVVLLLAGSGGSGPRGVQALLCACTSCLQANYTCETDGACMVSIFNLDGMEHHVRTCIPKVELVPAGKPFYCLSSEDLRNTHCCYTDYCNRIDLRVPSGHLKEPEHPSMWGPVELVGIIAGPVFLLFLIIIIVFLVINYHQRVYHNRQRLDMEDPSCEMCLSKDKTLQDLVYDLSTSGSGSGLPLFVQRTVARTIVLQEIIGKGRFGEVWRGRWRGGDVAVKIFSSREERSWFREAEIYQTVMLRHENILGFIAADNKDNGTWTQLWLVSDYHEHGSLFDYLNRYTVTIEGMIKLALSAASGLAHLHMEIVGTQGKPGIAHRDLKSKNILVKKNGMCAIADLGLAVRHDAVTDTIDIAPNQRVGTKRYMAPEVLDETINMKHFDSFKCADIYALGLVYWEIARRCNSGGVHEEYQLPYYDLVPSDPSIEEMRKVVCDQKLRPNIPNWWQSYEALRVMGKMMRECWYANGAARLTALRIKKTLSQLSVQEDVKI

## O=C1NC(=O)c2c1c1c3ccccc3[nH]c1n1cncc21
ABL1 (human)
  residual activity: 85.6%
ACVR1B (human)
  residual activity: 103%
AURKA (human)
  residual activity: 34.8%
AURKC (human)
  residual activity: 47.6%
AXL (human)
  residual activity: 91.7%
CAMK2B (human)
  residual activity: 58.2%
CAMK2D (human)
  residual activity: 36.7%
CAMKK2 (human)
  residual activity: 77.2%
CDK2 CCNE1 (human)
  residual activity: 66.5%
CHEK1 (human)
  residual activity: 24.6%
CLK1 (human)
  residual activity: 84%
CSNK2A1 (human)
  residual activity: 52.6%
DAPK2 (human)
  residual activity: 43.8%
DYRK1A (human)
  residual activity: 89.1%
EGFR (human)
  residual activity: 92.7%
EPHA4 (human)
  residual activity: 98.6%
EPHA5 (human)
  residual activity: 92%
EPHB4 (human)
  residual activity: 105%
ERBB2 (human)
  residual activity: 109%
FGFR2 (human)
  residual activity: 91.3%
FRK (human)
  residual activity: 96.8%
[1]
  residual activity: 102%
JAK2 JH1 JH2 (human)
  residual activity: 117%
KIT (human)
  residual activity: 38%
LCK (human)
  residual activity: 87.1%
LIMK1 (human)
  residual activity: 74.7%
MAP3K14 (human)
  residual activity: 83%
MAP4K2 (human)
  residual activity: 51.8%
MAPK14 (human)
  residual activity: 101%
MAPKAPK2 (human)
  residual activity: 98.9%
MKNK2 (human)
  residual activity: 35%
NEK2 (human)
  residual activity: 87.5%
OXSR1 (human)
  residual activity: 97.2%
PAK2 (human)
  residual activity: 99%
PASK (human)
  residual activity: 33.6%
PDGFRB (human)
  residual activity: 68.4%
PLK1 (human)
  residual activity: 50.8%
RET (human)
  residual activity: 42%
ROCK1 (human)
  residual activity: 95.9%
SRPK1 (human)
  residual activity: 95.4%
TTK (human)
  residual activity: 79%
TXK (human)
  residual activity: 76.4%
